These are literature values, as cited in patent US20070042008A1, “Compositions containing phosphatidylcholine and essential fatty acids” (BodyBio, Inc., priority 2005, published 2007).

The conditions of the data set: oral.

For the substance Phosphatidylcholine [PC], the “blood levels peak (time to peak)” value is 8 to 12 h. Moreover, where the note is “per 24 hrs, taken with meals”, the “absorbed, taken orally” value is on record as “up to 90%”.
